Drawing on ChEMBL document CHEMBL4043189, “Design, synthesis, and evaluation of substituted nicotinamide adenine dinucleotide (NAD+) synthetase inhibitors as potential antitubercular agents” (Bioorg Med Chem Lett, 2017), this text covers MIC and IC50 for 15 molecules.

≈ marks a conversion by molar mass, not a printed value.

The test system of test [1] is Mycobacterium tuberculosis. Kind of test: Antitubercular activity against Mycobacterium tuberculosis H37Rv incubated for 7 days under anaerobic condition measured by broth microdilution method. The following applies: 168 h. The class given is functional. A general note: In broth dilution the organism is exposed to a series of concentrations in liquid medium.
Test [2] has as its system Mycobacterium tuberculosis. Kind of test: Antitubercular activity against Mycobacterium tuberculosis H37Rv ATCC 27294 grown under Middlebrook 7H9 broth after 2 weeks by microscopic analysis. Format: functional. The settings on record: H37Rv ATCC 27294, 336 h.
Test [3] deals with Mycobacterium tuberculosis. Kind of test: Antitubercular activity against NRP-2 stage of Mycobacterium tuberculosis H37Rv ATCC 27294 grown under glycerol free dubos broth after 7 days by microscopic analysis. The class given is functional. The following applies: H37Rv ATCC 27294, 168 h.
A short description of test [4]: Inhibition of recombinant Mycobacterium tuberculosis glutamine-dependent NadE using NAAD as substrate assessed as residual activity preincubated for 20 mins followed L-glutamine addition measured over 40 mins by spectrophotometric based PNP enzyme coupled assay.
A short description of test [5]: Inhibition of recombinant Mycobacterium tuberculosis NH3-dependent NadE using NAAD as substrate assessed as residual activity preincubated for 20 mins followed NH4Cl addition measured over 40 mins by spectrophotometric based PNP enzyme coupled assay.
The nature of test [6]: Inhibition of Bacillus anthracis NadE using guanidine-HCl as substrate after 10 mins by HPLC analysis.
A further test deals with Bacillus anthracis. Kind of test: Antibacterial activity against Bacillus anthracis Sterne spore forms measured every hour for 5 hrs by broth microdilution method. Format: functional.

Regarding `COC(=O)c1cc2cc(OCc3ccccc3)ccc2n1CCCCCCCOC(=O)Cc1ccc([N+](C)(C)C)cc1`, the MIC (commonly the least concentration at which growth counts as inhibited) in test [1] came out at 20 µM.
Consider `O=C(Nc1ccc([N+](=O)[O-])cc1)Nc1ccc(S(=O)(=O)Nc2ccc(I)cc2)cc1`, for which the MIC in test [2] is 37 µg/mL (≈ 68.7 µM); in test [3], 50 µg/mL (≈ 92.9 µM). In test [4], the IC50 (in general, the concentration needed to halve the response being measured) was found to be 370 µM.
On to `COc1ccc(NS(=O)(=O)c2ccc(NC(=O)Nc3ccc([N+](=O)[O-])cc3)cc2)cc1`, for which the results for the MIC in test [2] and in test [3] were 25 µg/mL (≈ 56.5 µM) and 50 µg/mL (≈ 113 µM), respectively. Moreover, the IC50 in test [5] was more than 200 µM; in test [4], 130 µM.
Turning to `O=C(Nc1ccc([N+](=O)[O-])cc1)Nc1ccc(S(=O)(=O)Nc2cccc(C(F)(F)F)c2)cc1`, the figures for the MIC in test [2] and in test [3] were 37 µg/mL (≈ 77 µM) and 50 µg/mL (≈ 104 µM), respectively. Moreover, the IC50 was more than 200 µM in test [5] and 130 µM in test [4].
In the case of `O=C(Nc1ccc([N+](=O)[O-])cc1)Nc1ccc(S(=O)(=O)Nc2cccc([N+](=O)[O-])c2)cc1`, the MIC was 25 µg/mL (≈ 54.7 µM) in test [2] and 12.5 µg/mL (≈ 27.3 µM) in test [3]. In addition, the IC50 in test [4] is 170 µM.
As for `O=C(Nc1ccc([N+](=O)[O-])cc1)Nc1ccc(S(=O)(=O)Nc2ccc([N+](=O)[O-])cc2)cc1`, the values for the MIC in test [2] and in test [3] were 37 µg/mL (≈ 80.9 µM) and 25 µg/mL (≈ 54.7 µM), respectively. Moreover, the IC50 in test [5] was more than 200 µM; in test [4] it was 90 µM.
Consider `O=C(Nc1ccc([N+](=O)[O-])cc1)Nc1ccc(S(=O)(=O)Nc2ccc(O)cc2)cc1`, for which the MIC in test [2] is 37 µg/mL (≈ 86.4 µM); in test [3] it was 50 µg/mL (≈ 117 µM). Also, in test [4], the IC50 worked out at 160 µM.
Take `O=C(Nc1ccc([N+](=O)[O-])cc1)Nc1ccc(S(=O)(=O)Nc2ccc(Cl)cc2)cc1`: the MIC in test [2] amounted to 25 µg/mL (≈ 55.9 µM); in test [3], 37 µg/mL (≈ 82.8 µM). For the same molecule, the IC50 in test [4] turned out to be 520 µM.
The like results for `O=C(Nc1ccc([N+](=O)[O-])cc1)Nc1ccc(S(=O)(=O)Nc2ccc(F)cc2)cc1` were, in that order, 19 µg/mL (≈ 44.1 µM), 25 µg/mL (≈ 58.1 µM) and 170 µM.
The like results for `O=C(Nc1ccc([N+](=O)[O-])cc1)Nc1ccc(S(=O)(=O)Nc2ccc([N+](=O)[O-])c(C(F)(F)F)c2)cc1` were, in that order, 100 µg/mL (≈ 190 µM), 50 µg/mL (≈ 95.2 µM) and 190 µM.
`N#Cc1ccc(NS(=O)(=O)c2ccc(NC(=O)Nc3ccc([N+](=O)[O-])cc3)cc2)cc1`: the MIC in test [2] and in test [3] was 37 µg/mL (≈ 84.6 µM) in each case. In test [4], the IC50 turned out to be 190 µM.
On to `NCc1ccc(S(=O)(=O)Nc2ccc(NC(=O)Nc3cccc([N+](=O)[O-])c3)cc2)cc1`, for which the IC50 in test [6] was 15.3 µM. For the same molecule, the MIC with Bacillus anthracis is more than 240 µM.
With `O=C(Nc1ccc([N+](=O)[O-])cc1)Nc1ccc(S(=O)(=O)Nc2ccccc2)cc1`, the MIC in test [2] worked out at 75 µg/mL (≈ 182 µM); in test [3] it was 12.5 µg/mL (≈ 30.3 µM). Besides, the IC50 was more than 200 µM in test [5] and 125 µM in test [4].
For `O=C(Nc1ccc([N+](=O)[O-])cc1)Nc1ccc(S(=O)(=O)Nc2ccc(Cl)c(Cl)c2)cc1`, the MIC in test [2] was determined as 25 µg/mL (≈ 51.9 µM); in test [3] it was 50 µg/mL (≈ 104 µM). The IC50 in test [6] is 6.4 µM; in test [4] it was 1000 µM.
For the molecule `NNC(=O)c1ccncc1` [ISONIAZID], the results for the MIC in test [2] and in test [3] were 0.05 µg/mL (≈ 0.365 µM) and 0.03 µg/mL (≈ 0.219 µM), respectively.
